According to EP3800188A1, “SUBSTITUTED PYRAZOLOPYRIMIDINES AS IRAK4 INHIBITORS” (Bayer AG, priority 2019, dated 2021):

Tests used:
human IRAK4 = biological target: T1, human IRAK4 (Homo sapiens, UniProt Q9NWZ3); assay: Human IRAK4 kinase activity inhibition assay (IRAK4 TR-FRET assay); type: biochemical; settings: 1 mM ATP, GST-human IRAK4, average or median values
T1 construct: GST (N); made in house; host or cells: baculovirus-infected Hi5 (BTI-TN-5B1-4) insect cells
T1 sequence (Q9NWZ3 1-460): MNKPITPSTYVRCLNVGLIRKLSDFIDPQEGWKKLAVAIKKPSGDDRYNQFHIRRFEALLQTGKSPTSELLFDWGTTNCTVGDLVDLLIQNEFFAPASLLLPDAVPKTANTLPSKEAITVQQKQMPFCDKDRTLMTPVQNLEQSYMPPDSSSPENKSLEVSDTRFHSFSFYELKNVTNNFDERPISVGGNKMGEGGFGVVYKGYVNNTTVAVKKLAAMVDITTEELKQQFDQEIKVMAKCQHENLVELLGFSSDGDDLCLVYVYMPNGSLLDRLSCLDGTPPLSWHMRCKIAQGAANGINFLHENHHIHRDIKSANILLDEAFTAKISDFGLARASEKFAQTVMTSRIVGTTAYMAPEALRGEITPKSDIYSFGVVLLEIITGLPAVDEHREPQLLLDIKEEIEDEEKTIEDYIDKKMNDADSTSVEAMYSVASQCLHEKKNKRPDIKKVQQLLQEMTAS
Outline: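 Signal was the 665/620 nm emission ratio from a europium anti-mouse-IgG, anti-phosphoserine antibody and streptavidin-XL665 complex formed over 1 h at 22°C. It was scaled between no-enzyme (100%) and no-compound (0%) wells. Beforehand, compounds (20 µM down to 0.073 nM, 11 points) sat 15 min with roughly 0.2 nM insect-cell-expressed GST-human IRAK4 before phosphorylation of a biotinylated peptide substrate.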

[1] = Metabolic stability in human liver microsomes; settings: 1 µM compound; for CLblood, human microsomes: hepatic in vivo blood clearance calculated with well stirred liver model, '(stable)' given beside < 0.01; for Fmax, human microsomes: maximal oral bioavailability calculated with well stirred liver model, 0.5 mg/mL protein, '(stable)' given beside 100
Procedure: The in vitro metabolic stability of test compounds was determined by incubating them at 1 µM in a suspension liver microsomes in 100 mM phosphate buffer, pH7.4 (NaH2PO4 x H2O + Na2HPO4 x 2H2O) and at a protein concentration of 0.5 mg/mL at 37° C. The microsomes were activated by adding a co-factor mix containing 8 mM Glukose-6-Phosphat, 4 mM MgCl2, 0.5 mM NADP and 1 IU/mL G-6-P-Dehydrogenase in phosphate buffer, pH 7.4. The metabolic assay was started shortly afterwards by adding the test compound to the incubation at a final volume of 1 mL. Organic solvent in the incubations was limited to ≤0.01 % dimethylsulfoxide (DMSO) and ≤1% acetonitril. During incubation, the microsomal suspensions were continuously shaken at 580 rpm, and aliquots were taken at 2, 8, 16, 30, 45 and 60 min, to which equal volumes of cold methanol were immediately added. Samples were frozen at -20° C over night, subsequently centrifuged for 15 min at 3000 rpm and the supernatant was analyzed with an Agilent 1200 HPLC-system with LCMS/MS detection.
The half-life of a test compound was determined from the concentration-time plot. From the half-life the intrinsic clearances were calculated. Together with the additional parameters liver blood flow, specific liver weight and microsomal protein content the hepatic in vivo blood clearance (CL) and the maximal oral bioavailability (Fmax) were calculated using the "well stirred" liver model. The following parameter values were used: Liver blood flow - 1.32 L/h/kg (human), 2.1 L/h/kg (dog); specific liver weight - 21 g/kg (human), 39 g/kg (dog); microsomal protein content - 40 mg/g.

Row | SMILES | IC50 (human IRAK4) | CLblood, human microsomes [1] | Fmax, human microsomes [1]
1 | O[C@@H]1CN(c2nc(N[C@H]3C[C@H](O)C3)nc3c2cnn3-c2cccc(C(F)(F)F)c2)C[C@H]1F [Example I-88, (3R,4R)-4-fluoro-1-(6-{[(1r,3R)-3-hydroxycyclobutyl]amino}-1-[3-(trifluoromethyl)-phenyl]-1H-pyrazolo[3,4-d]pyrimidin-4-yl)pyrrolidin-3-ol] | 3.94 nM | 0.57 L/h/kg | 57%
2 | O[C@@H]1CN(c2nc(N[C@H]3C[C@@H](O)C3)nc3c2cnn3-c2cccc(C(F)(F)F)c2)C[C@H]1F [Example I-89, (3R,4R)-4-fluoro-1-(6-{[(1s,3S)-3-hydroxycyclobutyl]amino}-1-[3-(trifluoromethyl)-phenyl]-1H-pyrazolo[3,4-d]pyrimidin-4-yl)pyrrolidin-3-ol] | 4.72 nM | 0.37 L/h/kg | 72%
3 | CC(C)(O)C1CCN(c2nc(N[C@H]3C[C@](C)(O)C3)nc3c2cnn3-c2cccc(C(F)(F)F)c2)CC1 [Example I-91, trans-3-({4-[4-(2-hydroxypropan-2-yl)piperidin-1-yl]-1-[3-(trifluoromethyl)phenyl]-1H-pyrazolo[3,4-d]pyrimidin-6-yl}amino)-1-methylcyclobutanol] | 6.53 nM | 0.04 L/h/kg | 97%
4 | CCC1(O)CN(c2nc(N[C@H]3C[C@H](S(C)(=O)=O)C3)nc3c2cnn3-c2cccc(C(F)(F)F)c2)C1 [Example I-92, 3-ethyl-1-(6-{[trans-3-(methylsulfonyl)cyclobutyl]amino}-1-[3-(trifluoromethyl)phenyl]-1H-pyrazolo[3,4-d]pyrimidin-4-yl)azetidin-3-ol] | 5.61 nM | 0.36 L/h/kg | 73%
5 | CS(=O)(=O)[C@H]1C[C@H](Nc2nc(N3C[C@H](O)[C@@H](F)C3)c3cnn(-c4cccc(C(F)(F)F)c4)c3n2)C1 [Example I-94, (3S,4S)-4-fluoro-1-(6-{[(1r,3S)-3-(methylsulfonyl)cyclobutyl]amino}-1-[3-(trifluoromethyl)phenyl]-1H-pyrazolo[3,4-d]pyrimidin-4-yl)pyrrolidin-3-ol] | 4.28 nM | 0.16 L/h/kg | 88%
6 | O[C@H]1CN(c2nc(N[C@H]3C[C@@]4(CCN4)C3)nc3c2cnn3-c2cccc(C(F)(F)F)c2)C[C@@H]1F [Example I-98, (3S,4S)-1-{6-[(4S,6s)-1-azaspiro[3.3]heptan-6-ylamino]-1-[3-(trifluoromethyl)phenyl]-1H-pyrazolo[3,4-d]pyrimidin-4-yl}-4-fluoropyrrolidin-3-ol] | 9.99 nM | < 0.01 (stable) L/h/kg | 100 (stable) %
7 | O[C@@H]1CN(c2nc(N[C@H]3C[C@H](O)C3)nc3c2cnn3-c2cccc(C(F)(F)F)c2)C[C@H]1O [Example I-101, (3R,4R)-1-(6-{[(1r,3R)-3-hydroxycyclobutyl]amino}-1-[3-(trifluoromethyl)phenyl]-1H-pyrazolo[3,4-d]pyrimidin-4-yl)pyrrolidine-3,4-diol] | 2.81 nM | 0.35 L/h/kg | 73%
8 | CC1(N2CCOCC2)CN(c2nc(NC3CCS(=O)(=O)CC3)nc3c2cnn3-c2cccc(C(F)(F)F)c2)C1 [Example I-106, N-(1,1-dioxidotetrahydro-2H-thiopyran-4-yl)-4-[3-methyl-3-(morpholin-4-yl)azetidin-1-yl]-1-[3-(trifluoromethyl)phenyl]-1H-pyrazolo[3,4-d]pyrimidin-6-amine] | 9.09 nM | 0.68 L/h/kg | 48%
9 | C[C@]1(O)C[C@@H](Nc2nc(N3C[C@@H](O)[C@H](O)C3)c3cnn(-c4cccc(C(F)(F)F)c4)c3n2)C1 [Example I-107] | 8.11 nM | 0.05 L/h/kg | 96%
10 | C[C@]1(O)C[C@H](Nc2nc(N3C[C@@H](O)[C@H](O)C3)c3cnn(-c4cccc(C(F)(F)F)c4)c3n2)C1 [Example I-108, (3R,4R)-1-(6-{[(1r,3R)-3-hydroxy-3-methylcyclobutyl]amino}-1-[3-(trifluoromethyl)-phenyl]-1H-pyrazolo[3,4-d]pyrimidin-4-yl)pyrrolidine-3,4-diol] | 3.72 nM | 0.16 L/h/kg | 88%
11 | CC1(O)CCN(C2CN(c3nc(N[C@H]4C[C@@H](O)C4)nc4c3cnn4-c3cccc(C(F)(F)F)c3)C2)CC1 [Example I-109, 1-(1-{6-[(cis-3-hydroxycyclobutyl)amino]-1-[3-(trifluoromethyl)phenyl]-1H-pyrazolo[3,4-d]pyrimidin-4-yl}azetidin-3-yl)-4-methylpiperidin-4-ol] | 10.6 nM | 0.33 L/h/kg | 75%
12 | CC1(O)CCN(C2CN(c3nc(N[C@H]4C[C@@](C)(O)C4)nc4c3cnn4-c3cccc(C(F)(F)F)c3)C2)CC1 [Example I-111, 1-(1-{6-[(cis-3-hydroxy-3-methylcyclobutyl)amino]-1-[3-(trifluoromethyl)phenyl]-1H-pyrazolo[3,4-d]pyrimidin-4-yl}azetidin-3-yl)-4-methylpiperidin-4-ol] | 11.1 nM | 0.13 L/h/kg | 90%
13 | O=C1CCCN1C1CN(c2nc(N[C@H]3C[C@@H](O)C3)nc3c2cnn3-c2cccc(C(F)(F)F)c2)C1 [Example I-112, 1-(1-{6-[(cis-3-hydroxycyclobutyl)amino]-1-[3-(trifluoromethyl)phenyl]-1H-pyrazolo[3,4-d]pyrimidin-4-yl}azetidin-3-yl)pyrrolidin-2-one] | 3.24 nM | 0.39 L/h/kg | 71%

Second part, the compound after the results:

Row | IC50 (human IRAK4) | CLblood, human microsomes [1] | Fmax, human microsomes [1] | SMILES
14 | 3.6 nM | 0.03 L/h/kg | 98% | O=C1CCCN1C1CN(c2nc(N[C@H]3C[C@H](O)C3)nc3c2cnn3-c2cccc(C(F)(F)F)c2)C1 [Example I-113, 1-(1-{6-[(trans-3-hydroxycyclobutyl)amino]-1-[3-(trifluoromethyl)phenyl]-1H-pyrazolo-[3,4-d]pyrimidin-4-yl}azetidin-3-yl)pyrrolidin-2-one]
15 | 8.49 nM | 0.21 L/h/kg | 84% | OC1(CN2CCCC2)CCN(c2nc(N[C@H]3C[C@@H](O)C3)nc3c2cnn3-c2cccc(C(F)(F)F)c2)CC1 [Example I-114, 1-{6-[(cis-3-hydroxycyclobutyl)amino]-1-[3-(trifluoromethyl)phenyl]-1H-pyrazolo[3,4-d]pyrimidin-4-yl}-4-(pyrrolidin-1-ylmethyl)piperidin-4-ol]
16 | 7.51 nM | < 0.01 (stable) L/h/kg | 100 (stable) % | O=C1CN(C2CN(c3nc(N[C@H]4C[C@@H](O)C4)nc4c3cnn4-c3cccc(C(F)(F)F)c3)C2)CCN1 [Example I-115, 4-(1-{6-[(cis-3-hydroxycyclobutyl)amino]-1-[3-(trifluoromethyl)phenyl]-1H-pyrazolo[3,4-d]pyrimidin-4-yl}azetidin-3-yl)piperazin-2-one]
17 | 3.46 nM | < 0.01 (stable) L/h/kg | 100 (stable) % | O=C1C[C@H](Nc2nc(N3CC(N4CCOCC4)C3)c3cnn(-c4cccc(C(F)F)c4)c3n2)CN1 [II-1, (4S)-4-({1-[3-(difluoromethyl)phenyl]-4-[3-(morpholin-4-yl)azetidin-1-yl]-1H-pyrazolo[3,4-d]pyrimidin-6-yl}amino)pyrrolidin-2-one]
18 | 5.37 nM | < 0.01 (stable) L/h/kg | 100 (stable) % | CC(C)(O)CC1CN(c2nc(NC3CCS(=O)(=O)CC3)nc3c2cnn3-c2cccc(C(F)F)c2)C1 [II-7, 1-(1-{1-[3-(difluoromethyl)phenyl]-6-[(1,1-dioxidotetrahydro-2H-thiopyran-4-yl)amino]-1H-pyrazolo[3,4-d]pyrimidin-4-yl}azetidin-3-yl)-2-methylpropan-2-ol]
19 | 2.01 nM | < 0.01 (stable) L/h/kg | 100 (stable) % | CS(=O)(=O)[C@H]1C[C@H](Nc2nc(N3CC(N4CCOCC4)C3)c3cnn(-c4cccc(C(F)F)c4)c3n2)C1 [II-8, 1-[3-(difluoromethyl)phenyl]-N-[trans-3-(methylsulfonyl)cyclobutyl]-4-[3-(morpholin-4-yl)azetidin-1-yl]-1H-pyrazolo[3,4-d]pyrimidin-6-amine]
20 | 4.31 nM | 0.42 L/h/kg | 68% | O=C(CC1CN(c2nc(NC3CCS(=O)(=O)CC3)nc3c2cnn3-c2cccc(C(F)F)c2)C1)N1CCOCC1 [II-10, 2-(1-{1-[3-(difluoromethyl)phenyl]-6-[(1,1-dioxidotetrahydro-2H-thiopyran-4-yl)amino]-1H-pyrazolo[3,4-d]pyrimidin-4-yl}azetidin-3-yl)-1-(morpholin-4-yl)ethanone]
